Measured values as given in PubChem BioAssay AID2060893 (Molecular Pharmacology Branch, DTP, NCI, 2025).

System: K86415-001-R-J1-PDC complex spheroids, viability
Test: Anticancer human tumor K86415-001-R-J1-PDC patient-derived lung adenocarcinoma cell line growth inhibition [RAS]
Settings: for IC50: curve of first compound; for viability, T/C: stronger effect = lower value
Summary of the method: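 Multi-cell-type spheroids: tumor cells plus HUVEC endothelial cells and mesenchymal stem cells. RAS-pathway inhibitors were combined with targeted agents, each dosed in half-log steps down from clinical Cmax, or from 10 microM when Cmax was unknown.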

[1] = second compound 0.000949 µM, first compound 0.0316 µM
[2] = second compound 0.000949 µM, first compound 0.1 µM
[3] = second compound 0.000949 µM, first compound 0.316 µM
[4] = second compound 0.000949 µM, first compound 1 µM
[5] = second compound 0.000949 µM, first compound 3.16 µM
[6] = second compound 0.000949 µM, first compound 10 µM
[7] = second compound 0.003 µM, first compound 0.0316 µM
[8] = second compound 0.003 µM, first compound 0.1 µM
[9] = second compound 0.003 µM, first compound 0.316 µM
[10] = second compound 0.003 µM, first compound 1 µM
[11] = second compound 0.003 µM, first compound 3.16 µM
[12] = second compound 0.003 µM, first compound 10 µM
[13] = second compound 0.00949 µM, first compound 0.0316 µM
[14] = second compound 0.00949 µM, first compound 0.1 µM
[15] = second compound 0.00949 µM, first compound 0.316 µM
[16] = second compound 0.00949 µM, first compound 1 µM
[17] = second compound 0.00949 µM, first compound 3.16 µM
[18] = second compound 0.00949 µM, first compound 10 µM
[19] = second compound 0.03 µM, first compound 0.0316 µM
[20] = second compound 0.03 µM, first compound 0.1 µM
[21] = second compound 0.03 µM, first compound 0.316 µM
[22] = second compound 0.03 µM, first compound 1 µM
[23] = second compound 0.03 µM, first compound 3.16 µM
[24] = second compound 0.03 µM, first compound 10 µM
[25] = second compound 0.0949 µM, first compound 0.0316 µM
[26] = second compound 0.0949 µM, first compound 0.1 µM
[27] = second compound 0.0949 µM, first compound 0.316 µM
[28] = second compound 0.0949 µM, first compound 1 µM
[29] = second compound 0.0949 µM, first compound 3.16 µM
[30] = second compound 0.0949 µM, first compound 10 µM
[31] = second compound 0.3 µM, first compound 0.0316 µM
[32] = second compound 0.3 µM, first compound 0.1 µM
[33] = second compound 0.3 µM, first compound 0.316 µM
[34] = second compound 0.3 µM, first compound 1 µM
[35] = second compound 0.3 µM, first compound 3.16 µM
[36] = second compound 0.3 µM, first compound 10 µM
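Note: spheroids exposed to agents for seven days before readout.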

CC(=O)OC12COC1CC(O)C1(C)C(=O)C(O)C3=C(C)C(OC(=O)C(O)C(NC(=O)OC(C)(C)C)c4ccccc4)CC(O)(C(OC(=O)c4ccccc4)C21)C3(C)C (stereo unspecified) + CCn1c(-c2cccnc2C(C)OC)c2c3cc(ccc31)N1CCOC(CC(NC(=O)C(C(C)C)N(C)C(=O)C3(F)CCN(C(=O)C#CC(C)(C)N(C)C)CC3)C(=O)N3CCCC(N3)C(=O)OCC(C)(C)C2)C1
IC50 (second compound 0.000949 µM): < 31.6 nM | IC50 (second compound 0.003 µM): < 31.6 nM | IC50 (second compound 0.00949 µM): < 31.6 nM | IC50 (second compound 0.03 µM): < 31.6 nM | IC50 (second compound 0.0949 µM): < 31.6 nM | IC50 (second compound 0.3 µM): < 31.6 nM | viability, T/C [1]: 18.7% | viability, T/C [2]: 15.3% | viability, T/C [3]: 11.3% | viability, T/C [4]: 17.3% | viability, T/C [5]: 16.2% | viability, T/C [6]: 12.4% | viability, T/C [7]: 15.4% | viability, T/C [8]: 12% | viability, T/C [9]: 11.3% | viability, T/C [10]: 10.1% | viability, T/C [11]: 12.7% | viability, T/C [12]: 9.57% | viability, T/C [13]: 13.6% | viability, T/C [14]: 10.8% | viability, T/C [15]: 12.1% | viability, T/C [16]: 11.7% | viability, T/C [17]: 11.5% | viability, T/C [18]: 7.67% | viability, T/C [19]: 10.3% | viability, T/C [20]: 14.9% | viability, T/C [21]: 10.9% | viability, T/C [22]: 11.3% | viability, T/C [23]: 10.9% | viability, T/C [24]: 12.1% | viability, T/C [25]: 11.4% | viability, T/C [26]: 9.46% | viability, T/C [27]: 10.1% | viability, T/C [28]: 10.8% | viability, T/C [29]: 6.98% | viability, T/C [30]: 8.55% | viability, T/C [31]: 10.3% | viability, T/C [32]: 7.45% | viability, T/C [33]: 7.7% | viability, T/C [34]: 5.41% | viability, T/C [35]: 6.82% | viability, T/C [36]: 7.01%

NC1c2ccccc2OC12CCN(c1cnc3c(N4CCCc5ncccc54)n[nH]c3n1)CC2 (stereo unspecified) + CCn1c(-c2cccnc2C(C)OC)c2c3cc(ccc31)N1CCOC(CC(NC(=O)C(C(C)C)N(C)C(=O)C3(F)CCN(C(=O)C#CC(C)(C)N(C)C)CC3)C(=O)N3CCCC(N3)C(=O)OCC(C)(C)C2)C1
IC50 (second compound 0.000949 µM): < 31.6 nM | IC50 (second compound 0.003 µM): < 31.6 nM | IC50 (second compound 0.00949 µM): < 31.6 nM | IC50 (second compound 0.03 µM): < 31.6 nM | IC50 (second compound 0.0949 µM): < 31.6 nM | IC50 (second compound 0.3 µM): < 31.6 nM | viability, T/C [1]: 13.4% | viability, T/C [2]: 8.22% | viability, T/C [3]: 6.07% | viability, T/C [4]: 6.52% | viability, T/C [5]: 7.18% | viability, T/C [6]: 5.23% | viability, T/C [7]: 5.86% | viability, T/C [8]: 4.35% | viability, T/C [9]: 4.13% | viability, T/C [10]: 4.19% | viability, T/C [11]: 4.18% | viability, T/C [12]: 3.63% | viability, T/C [13]: 6.83% | viability, T/C [14]: 4.56% | viability, T/C [15]: 3.88% | viability, T/C [16]: 3.79% | viability, T/C [17]: 3.72% | viability, T/C [18]: 4.04% | viability, T/C [19]: 5.26% | viability, T/C [20]: 5.42% | viability, T/C [21]: 4.52% | viability, T/C [22]: 3.97% | viability, T/C [23]: 2.82% | viability, T/C [24]: 3.8% | viability, T/C [25]: 6.89% | viability, T/C [26]: 5.55% | viability, T/C [27]: 3.94% | viability, T/C [28]: 3.94% | viability, T/C [29]: 2.53% | viability, T/C [30]: 3.05% | viability, T/C [31]: 5.95% | viability, T/C [32]: 4.18% | viability, T/C [33]: 4.35% | viability, T/C [34]: 2.49% | viability, T/C [35]: 2.46% | viability, T/C [36]: 2.39%

Nc1ccn(C2OC(CO)C(O)C2(F)F)c(=O)n1 (stereo unspecified) + CCn1c(-c2cccnc2C(C)OC)c2c3cc(ccc31)N1CCOC(CC(NC(=O)C(C(C)C)N(C)C(=O)C3(F)CCN(C(=O)C#CC(C)(C)N(C)C)CC3)C(=O)N3CCCC(N3)C(=O)OCC(C)(C)C2)C1
IC50 (second compound 0.000949 µM): < 3.16 nM | IC50 (second compound 0.003 µM): < 3.16 nM | IC50 (second compound 0.00949 µM): < 3.16 nM | IC50 (second compound 0.03 µM): < 3.16 nM | IC50 (second compound 0.0949 µM): < 3.16 nM | IC50 (second compound 0.3 µM): < 3.16 nM | viability, T/C (second compound 0.000949 µM, first compound 0.00316 µM): 37.9% | viability, T/C (second compound 0.000949 µM, first compound 0.01 µM): 34.3% | viability, T/C [1]: 19.9% | viability, T/C [2]: 27% | viability, T/C [3]: 19.2% | viability, T/C [4]: 9.69% | viability, T/C (second compound 0.003 µM, first compound 0.00316 µM): 15.3% | viability, T/C (second compound 0.003 µM, first compound 0.01 µM): 11.6% | viability, T/C [7]: 10.8% | viability, T/C [8]: 12.3% | viability, T/C [9]: 12% | viability, T/C [10]: 9.95% | viability, T/C (second compound 0.00949 µM, first compound 0.00316 µM): 9.77% | viability, T/C (second compound 0.00949 µM, first compound 0.01 µM): 10% | viability, T/C [13]: 16.4% | viability, T/C [14]: 12.3% | viability, T/C [15]: 11.2% | viability, T/C [16]: 7.94% | viability, T/C (second compound 0.03 µM, first compound 0.00316 µM): 13.3% | viability, T/C (second compound 0.03 µM, first compound 0.01 µM): 11% | viability, T/C [19]: 11.1% | viability, T/C [20]: 9.53% | viability, T/C [21]: 9.66% | viability, T/C [22]: 12.4% | viability, T/C (second compound 0.0949 µM, first compound 0.00316 µM): 11.5% | viability, T/C (second compound 0.0949 µM, first compound 0.01 µM): 10.9% | viability, T/C [25]: 12.8% | viability, T/C [26]: 11.3% | viability, T/C [27]: 7.92% | viability, T/C [28]: 10.5% | viability, T/C (second compound 0.3 µM, first compound 0.00316 µM): 15.4% | viability, T/C (second compound 0.3 µM, first compound 0.01 µM): 12.6% | viability, T/C [31]: 11.2% | viability, T/C [32]: 9.08% | viability, T/C [33]: 8.09% | viability, T/C [34]: 10.1%
